Results: patent publication US4985406A (Institut National de la Sante et de La Recherche Medicale …, priority 1987, dated 1991)
pEC50, pKi: −log10 of the molar value. Starred links: 1 amine or outer side, 2 acyl side, 3 side chain; linkers in the order of their positions; H or OH if unused. Positions of bridges follow the written chain, without caps; N, C: chain ends. Non-standard residues stand in square brackets, D forms with d. Residues, ends and D or L forms follow the SMILES beside them. *: point of attachment. X1 = CC(C)(C)OC(=O)N[C@H](CCC(=O)[*:1])C(=O)[*:2]; sY = N[C@@H](Cc1ccc(OS(=O)(=O)O)cc1)C(=O)O; Nle = CCCC[C@H](N)C(=O)O; Boc = CC(C)(C)OC(=O)*

Tests used:
[1] = target: T1, peripheral cholecystokininergic receptors (guinea-pig pancreatic acini) (Cavia porcellus, UniProt Q63931); assay: Binding test, competition with [3H]BOC-[NLe28,31]CCK27-33 on guinea-pig pancreatic acini; conditions: [3H]BOC-[NLe28,31]CCK27-33 at 0.5 nM
T1 construct: on guinea-pig brain cortex and guinea-pig pancreatic acini; from tissue; host or cells: guinea-pig pancreatic acini
T1 sequence (Q63931 1-430): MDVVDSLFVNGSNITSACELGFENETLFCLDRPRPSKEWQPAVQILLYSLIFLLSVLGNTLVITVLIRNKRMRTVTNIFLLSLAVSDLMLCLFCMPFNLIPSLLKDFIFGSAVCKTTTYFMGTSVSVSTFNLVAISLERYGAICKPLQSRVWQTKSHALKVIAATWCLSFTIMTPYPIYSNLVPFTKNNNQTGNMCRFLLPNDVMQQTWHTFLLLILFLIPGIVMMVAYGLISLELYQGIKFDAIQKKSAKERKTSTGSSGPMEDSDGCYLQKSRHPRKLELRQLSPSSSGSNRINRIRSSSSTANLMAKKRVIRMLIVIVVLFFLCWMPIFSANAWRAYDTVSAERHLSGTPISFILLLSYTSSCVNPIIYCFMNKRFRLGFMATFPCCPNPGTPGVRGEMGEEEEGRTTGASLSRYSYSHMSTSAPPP
Description: (§1) The products of the invention are tested in competitive experiments with respect to the ligand [^3 H]BOC-[NLe^28,31 ]CCK27-33 on guinea-pig brain cortex and guinea-pig pancreatic acini. […] The [^3 H]BOC-[NLe^28,31 ]CCK27-33 was used at a concentration of 0.2 nM for the brain and 0.5 nM for the pancreas.

[2] = target: cholecystokininergic receptors of the central nervous system (guinea-pig brain cortex); assay: Binding test, competition with [3H]BOC-[NLe28,31]CCK27-33 on guinea-pig brain cortex; conditions: for pKi: [3H]BOC-[NLe28,31]CCK27-33 at 0.2 nM, guinea-pig brain cortex; for Selectivity factor: ratio given as drawing 11, matches KI pancreatic acini / KI cortex
Description: as §1

[3] = test system: guinea-pig ileum; assay: Test of contraction-inducing activity on guinea-pig ileum; conditions: mean (±S.E.M.) of 3 independent experiments; read-out: Contraction-inducing activity on guinea-pig ileum, agonist activity EC50
Description: This test is carried out according to the method described by HUTCHINSON et al., Eur. J. Pharmacol., 69, 87 (1981). Strips of guinea-pig ileum of the terminal portion are rapidly removed and attached in the cell of an isometric gauge containing 25 cm^3 of Tyrode's solution. The solution is maintained at 37° C. while a stream of a gas composed of 95% oxygen and 5% CO2 is passed through bubble by bubble. The test compounds are tested under the conditions described by RUIZ-GAYO et al., Peptides, 6, 415 (1985).
The values shown in this table for the agonist activity represent the mean (±S.E.M.) of 3 independent experiments.

[4] = target: guinea-pig pancreatic acini; assay: Test of release of pancreatic amylase; format: cell-based; conditions: acini incubated 30 minutes at 37° C.; mean of 3 independent experiments in triplicate; read-out: Secretion of pancreatic amylase by guinea-pig acini, agonist activity EC50
Description: J. Physiol., 235, E 743 (1978). The acini are incubated for 30 minutes at 37° C. in the presence of the test product at different doses, according to the method described by GARDNER and JACKSON, J. Physiol., 270, 439 (1977). The amylase activity is determined using the PHADEBAS reagent (Pharmacia) according to the method described by CESKA et al., Experientia, 25, 555 (1969).
The values shown in this table represent the mean of 3 independent experiments, each performed in triplicate.

pKi [1] | Compound | pKi [2] | Selectivity factor [2] | pEC50 [3] | pEC50 [4]
6.07 | CCCC[C@H](NC(=O)[C@H](Cc1c[nH]c2ccccc12)NC(=O)[C@H]1CCCCNC(=O)[C@H](NC(=O)OC(C)(C)C)CCC(=O)N[C@@H](Cc2ccc(O)cc2)C(=O)N[C@@H](CCCC)C(=O)N1)C(=O)N[C@@H](CC(=O)O)C(=O)N[C@@H](Cc1ccccc1)C(N)=O [Example 15] (Y[Nle][dK]W[Nle]DF-NH2; linker N-3 via X1) |  |  |  | 
 | CCCC[C@H](NC(=O)[C@H](Cc1c[nH]c2ccccc12)NC(=O)[C@H]1CCCCNC(=O)CC[C@@H](NC(=O)OC(C)(C)C)C(=O)N[C@@H](Cc2ccc(OS(=O)(=O)O)cc2)C(=O)N[C@@H](CCCC)C(=O)N1)C(=O)N[C@@H](CC(=O)O)C(=O)N[C@@H](Cc1ccccc1)C(N)=O [Example 7] (Boc-[dE][sY][Nle][dK]W[Nle]DF-NH2; lactam 1-4; N-terminus assumed) | 8.20 | 160 | < 5.00 | 
 | CCCC[C@H](NC(=O)[C@H](Cc1c[nH]c2ccccc12)NC(=O)[C@H]1CCCCNC(=O)[C@H](NC(=O)OC(C)(C)C)CCC(=O)N[C@@H](Cc2ccc(OS(=O)(=O)O)cc2)C(=O)N[C@@H](CCCC)C(=O)N1)C(=O)N[C@@H](CC(=O)O)C(=O)N[C@@H](Cc1ccccc1)C(N)=O [Example 16] ([sY][Nle][dK]W[Nle]DF-NH2; linker N-3 via X1; C-terminus assumed) | 9.31 | 1970 | < 5.00 | 
 | CCCC[C@H](NC(=O)[C@H](Cc1c[nH]c2ccccc12)NC(=O)[C@H]1CCCCNC(=O)C[C@@H](NC(=O)OC(C)(C)C)C(=O)N[C@@H](Cc2ccc(OS(=O)(=O)O)cc2)C(=O)N[C@@H](CCCC)C(=O)N1)C(=O)N[C@@H](CC(=O)O)C(=O)N[C@@H](Cc1ccccc1)C(N)=O [Example 5] (Boc-[dD][sY][Nle][dK]W[Nle]DF-NH2; lactam 1-4; N-terminus assumed) | 8.29 | 179 | < 5.00 | > 5.00
